Experimental findings from patent US20230167118A1, “DEGRADATION OF BRUTON'S TYROSINE KINASE (BTK) BY CONJUGATION OF BTK INIDBITORS WITH E3 LIGASE LIGAND AND METHODS OF USE” (BEIGENE, LTD., priority 2020, published 2023) are described below.

One assay concerns the target T1, BTK (Homo sapiens, UniProt Q06187).
T1 construct: High control=Cell group with added DMSO and without compound, indicating microplate readings without BTK degradation; endogenous in cells; host or cells: TMD-8 cells
As to the kind of experiment: Cell Degradation: BTK degradation in TMD-8 cells, HTRF assay. The conditions noted are these: 6 h treatment, IC50 (DC50) of BTK degradation. In kind it is cell-based. The method, boiled down:
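BTK levels read by HTRF (665 vs 620 nm) in lysates of TMD-8 cells after 6 h compound exposure (eight doses, 6-fold steps, 0.2% DMSO). Percent degradation relative to controls; four-parameter curve fitting gave DC50, with Dmax the top degradation.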

The test system of a further assay is HEK-293 cells. As to the kind of experiment: HEK-293 Cytotoxicity Assay (CellTiter-Glo). In kind it is cell-based. To be noted: Homo sapiens, HEK293, 72 h incubation, CellTiter-Glo luminescence. The method, boiled down:
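Four-parameter fit of % inhibition gives IC50, from CellTiter-Glo luminescent viability read-out. Cells exposed for 72 h to an 8-point, 4-fold series at 0.2% DMSO.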

T1 sequence (Q06187 whole entry): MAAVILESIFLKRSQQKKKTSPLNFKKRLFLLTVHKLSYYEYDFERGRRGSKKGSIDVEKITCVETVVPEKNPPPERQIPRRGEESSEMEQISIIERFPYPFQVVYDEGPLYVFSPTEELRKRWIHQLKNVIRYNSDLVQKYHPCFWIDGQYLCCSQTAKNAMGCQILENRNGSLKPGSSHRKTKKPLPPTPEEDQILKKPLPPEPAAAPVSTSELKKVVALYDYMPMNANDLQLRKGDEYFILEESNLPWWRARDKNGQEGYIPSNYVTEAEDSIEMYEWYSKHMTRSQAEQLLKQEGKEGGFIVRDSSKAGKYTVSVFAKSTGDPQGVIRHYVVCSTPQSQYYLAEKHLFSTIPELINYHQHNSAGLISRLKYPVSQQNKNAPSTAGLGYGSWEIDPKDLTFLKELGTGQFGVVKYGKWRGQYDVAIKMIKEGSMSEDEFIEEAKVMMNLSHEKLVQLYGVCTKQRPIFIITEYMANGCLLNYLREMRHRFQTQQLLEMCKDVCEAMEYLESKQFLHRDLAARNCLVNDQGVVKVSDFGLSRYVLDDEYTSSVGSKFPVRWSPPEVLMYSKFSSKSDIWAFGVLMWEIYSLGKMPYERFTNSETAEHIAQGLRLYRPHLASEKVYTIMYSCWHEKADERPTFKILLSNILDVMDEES

`Cc1cc(-c2ncnc3[nH]c(-c4ccc(N5CCN(CC6CCN(c7ccc(N8CCC(=O)NC8=O)cc7)CC6)CC5)cc4)cc23)ccc1CNC(=O)c1cnc(C(C)(C)C)s1` [Example 47, 2-(tert-butyl)-N-(4-(6-(4-(4-((1-(4-(2,4-dioxotetrahydropyrimidin-1(2H)-yl)phenyl)piperidin-4-yl)methyl)piperazin-1-yl)phenyl)-7H-pyrrolo[2,3-d]pyrimidin-4-yl)-2-methylbenzyl)thiazole-5-carboxamide] gave a DC50 at BTK of 1.8 nM. The compound further showed an IC50 in the assay with HEK-293 cells greater than 10000 nM.

On BTK, `Cc1cc(-c2ncnc3[nH]c(-c4ccc(N5CCN(CC6CCN(c7ccc(C8CCC(=O)NC8=O)cc7)CC6)CC5)nc4)cc23)ccc1[C@@H](C)NC(=O)c1nc(C(C)(C)C)no1` (stereo partly drawn) [Example 48, 3-(tert-butyl)-N-((1R)-1-(4-(6-(6-(4-((1-(4-(2,6-dioxopiperidin-3-yl)phenyl)piperidin-4-yl)methyl)piperazin-1-yl)pyridin-3-yl)-7H-pyrrolo[2,3-d]pyrimidin-4-yl)-2-methylphenyl)ethyl)-1,2,4-oxadiazole-5-carboxamide] registered a DC50 of 1.7 nM. Moreover, the IC50 with HEK-293 cells is greater than 10000 nM.

Compound `Cc1cc(-c2ncnc3[nH]c(-c4ccc(OC5CCN(CC6CCN(c7ccc(N8CCC(=O)NC8=O)cc7)CC6)CC5)cc4)cc23)ccc1CNC(=O)c1nc(C(C)(C)C)no1` [Example 49, 3-(tert-butyl)-N-(4-(6-(4-((1-((1-(4-(2,4-dioxotetrahydropyrimidin-1(2H)-yl)phenyl)piperidin-4-yl)methyl)piperidin-4-yl)oxy)phenyl)-7H-pyrrolo[2,3-d]pyrimidin-4-yl)-2-methylbenzyl)-1,2,4-oxadiazole-5-carboxamide] yielded a DC50 on BTK of 1.3 nM. The IC50 in the assay with HEK-293 cells is greater than 10000 nM.

`Cc1cc(-c2ncnc3[nH]c(-c4ccc(N5CCN(CC6CCN(c7ccc(N8CCC(=O)NC8=O)cc7)CC6)CC5)cc4)cc23)ccc1CNC(=O)c1noc(C(C)(C)C(F)(F)F)n1` [Example 50, N-(4-(6-(4-(4-((1-(4-(2,4-dioxotetrahydropyrimidin-1(2H)-yl)phenyl)piperidin-4-yl)methyl)piperazin-1-yl)phenyl)-7H-pyrrolo[2,3-d]pyrimidin-4-yl)-2-methylbenzyl)-5-(1,1,1-trifluoro-2-methylpropan-2-yl)-1,2,4-oxadiazole-3-carboxamide]: on BTK, the DC50 worked out at 1.1 nM. Also, the IC50 with HEK-293 cells is greater than 10000 nM.

Compound `Cc1cc(-c2ncnc3[nH]c(-c4ccc(N5CCN(CC6CCN(c7ccc(N8CCC(=O)NC8=O)cc7)CC6)CC5)cc4)cc23)ccc1CNC(=O)c1noc(C2(C(F)(F)F)CC2)n1` [Example 51, N-(4-(6-(4-(4-((1-(4-(2,4-dioxotetrahydropyrimidin-1(2H)-yl)phenyl)piperidin-4-yl)methyl)piperazin-1-yl)phenyl)-7H-pyrrolo[2,3-d]pyrimidin-4-yl)-2-methylbenzyl)-5-(1-(trifluoromethyl)cyclopropyl)-1,2,4-oxadiazole-3-carboxamide] yielded a DC50 on BTK of 0.38 nM. In the assay with HEK-293 cells, this compound returned an IC50 greater than 10000 nM.

Take `Cc1cc(N2CCC(CN3CCN(c4ccc(-c5cc6c(-c7ccc([C@@H](C)NC(=O)c8nc(C(C)(C)C)no8)c(F)c7)ncnc6[nH]5)cn4)CC3)CC2)ccc1N1CCC(=O)NC1=O` [Example 52, (R)-3-(tert-butyl)-N-(1-(4-(6-(6-(4-((1-(4-(2,4-dioxotetrahydropyrimidin-1(2H)-yl)-3-methylphenyl)piperidin-4-yl)methyl)piperazin-1-yl)pyridin-3-yl)-7H-pyrrolo[2,3-d]pyrimidin-4-yl)-2-fluorophenyl)ethyl)-1,2,4-oxadiazole-5-carboxamide]: at BTK, it took 1.7 nM to reach half-maximal degradation (DC50). Further, the IC50 in the assay with HEK-293 cells was greater than 10000 nM.

On BTK, `Cc1cc(-c2ncnc3[nH]c(-c4ccc(N5CCN(CCC6CCN(c7ccc([C@H]8CCC(=O)NC8=O)cc7)CC6)CC5)nc4)cc23)ccc1[C@@H](C)NC(=O)c1nc(C(C)(C)C)no1` [Example 53, 3-(tert-butyl)-N-((R)-1-(4-(6-(6-(4-(2-(1-(4-((R)-2,6-dioxopiperidin-3-yl)phenyl)piperidin-4-yl)ethyl)piperazin-1-yl)pyridin-3-yl)-7H-pyrrolo[2,3-d]pyrimidin-4-yl)-2-methylphenyl)ethyl)-1,2,4-oxadiazole-5-carboxamide] returned a DC50 greater than 2000 nM. The compound further showed a concentration for half-maximal inhibition (IC50) in the assay with HEK-293 cells greater than 10000 nM.

For the compound `Cc1cc(-c2ncnc3[nH]c(-c4ccc(N5CCN(CCC6CCN(c7ccc([C@@H]8CCC(=O)NC8=O)cc7)CC6)CC5)nc4)cc23)ccc1[C@@H](C)NC(=O)c1nc(C(C)(C)C)no1` [Example 54, 3-(tert-butyl)-N-((R)-1-(4-(6-(6-(4-(2-(1-(4-((S)-2,6-dioxopiperidin-3-yl)phenyl)piperidin-4-yl)ethyl)piperazin-1-yl)pyridin-3-yl)-7H-pyrrolo[2,3-d]pyrimidin-4-yl)-2-methylphenyl)ethyl)-1,2,4-oxadiazole-5-carboxamide], at BTK, it took 3.7 nM to reach half-maximal degradation (DC50). Further, the half-maximal inhibitory concentration (IC50) with HEK-293 cells is greater than 10000 nM.

With `Cc1cc(-c2ncnc3[nH]c(-c4ccc(N5CCN(CC6CCN(c7ccc(C8CCC(=O)NC8=O)cc7)CC6)CC5)cc4)cc23)ccc1[C@@H](C)NC(=O)c1nc(C(C)(C)C)no1` (stereo partly drawn) [Example 55, (R)-3-(tert-butyl)-N-(1-(4-(6-(4-(4-((1-(4-(2,6-dioxopiperidin-3-yl)phenyl)piperidin-4-yl)methyl)piperazin-1-yl)phenyl)-7H-pyrrolo[2,3-d]pyrimidin-4-yl)-2-methylphenyl)ethyl)-1,2,4-oxadiazole-5-carboxamide], at BTK, the DC50 worked out at 3.2 nM. The compound also displayed an IC50 in the assay on HEK-293 cells greater than 10000 nM.

Consider `Cc1cc(-c2ncnc3[nH]c(-c4ccc(N5CCN(CC6CCN(c7ccc(N8CCC(=O)NC8=O)c(C)c7)CC6)CC5)nc4)cc23)ccc1[C@@H](C)NC(=O)c1nc(C(C)(C)C)no1` [Example 58, (R)-3-(tert-butyl)-N-(1-(4-(6-(6-(4-((1-(4-(2,4-dioxotetrahydropyrimidin-1(2H)-yl)-3-methylphenyl)piperidin-4-yl)methyl)piperazin-1-yl)pyridin-3-yl)-7H-pyrrolo[2,3-d]pyrimidin-4-yl)-2-methylphenyl)ethyl)-1,2,4-oxadiazole-5-carboxamide], for which half-maximal degradation on BTK (DC50) was put at 1.5 nM. In addition, in the assay on HEK-293 cells, the half-inhibitory concentration (IC50) was greater than 10000 nM.

The compound `Cc1cc(-c2ncnc3[nH]c(-c4c(C)nn(C5CCN(CC6CCN(c7ccc(N8CCC(=O)NC8=O)cc7)CC6)CC5)c4C)cc23)ccc1[C@@H](C)NC(=O)c1nc(C(C)(C)C)no1` [Example 60, (R)-3-(tert-butyl)-N-(1-(4-(6-(1-(1-((1-(4-(2,4-dioxotetrahydropyrimidin-1(2H)-yl)phenyl)piperidin-4-yl)methyl)piperidin-4-yl)-3,5-dimethyl-1H-pyrazol-4-yl)-7H-pyrrolo[2,3-d]pyrimidin-4-yl)-2-methylphenyl)ethyl)-1,2,4-oxadiazole-5-carboxamide] displayed a DC50 at BTK of 0.48 nM. In addition, the IC50 with HEK-293 cells was greater than 10000 nM.

`Cc1cc(-c2ncnc3[nH]c(-c4c(C)nn(C5CCN(CC6CCN(c7ccc(N8CCC(=O)NC8=O)c(C)c7)CC6)CC5)c4C)cc23)ccc1[C@@H](C)NC(=O)c1nc(C(C)(C)C)no1` [Example 61, (R)-3-(tert-butyl)-N-(1-(4-(6-(1-(1-((1-(4-(2,4-dioxotetrahydropyrimidin-1(2H)-yl)-3-methylphenyl)piperidin-4-yl)methyl)piperidin-4-yl)-3,5-dimethyl-1H-pyrazol-4-yl)-7H-pyrrolo[2,3-d]pyrimidin-4-yl)-2-methylphenyl)ethyl)-1,2,4-oxadiazole-5-carboxamide] registered a 50% degradation concentration (DC50) at BTK of 0.52 nM. This compound had an IC50 in the assay with HEK-293 cells of 9000 nM.

For the compound `Cc1cc(-c2ncnc3[nH]c(-c4c(C)nn(C5CCN(CC6CCN(c7ccc(N8CCC(=O)NC8=O)cc7)CC6)CC5)c4C)cc23)ccc1[C@@H](C)NC(=O)c1noc(C(C)(C)C)n1` [Example 62, (R)-5-(tert-butyl)-N-(1-(4-(6-(1-(1-((1-(4-(2,4-dioxotetrahydropyrimidin-1(2H)-yl)phenyl)piperidin-4-yl)methyl)piperidin-4-yl)-3,5-dimethyl-1H-pyrazol-4-yl)-7H-pyrrolo[2,3-d]pyrimidin-4-yl)-2-methylphenyl)ethyl)-1,2,4-oxadiazole-3-carboxamide], the DC50 on BTK was found to be 0.53 nM. In addition, the IC50 in the assay on HEK-293 cells was greater than 10000 nM.

Regarding `Cc1cc(-c2ncnc3[nH]c(-c4ccc(N5CCN(CC6CCN(c7ccc(N8CCC(=O)NC8=O)c(C)c7)CC6)CC5)nc4)nc23)ccc1[C@@H](C)NC(=O)c1nc(C(C)(C)C)no1` [Example 65, (R)-3-(tert-butyl)-N-(1-(4-(8-(6-(4-((1-(4-(2,4-dioxotetrahydropyrimidin-1(2H)-yl)-3-methylphenyl)piperidin-4-yl)methyl)piperazin-1-yl)pyridin-3-yl)-9H-purin-6-yl)-2-methylphenyl)ethyl)-1,2,4-oxadiazole-5-carboxamide], at BTK, the DC50 was determined as 0.6 nM. In the assay on HEK-293 cells, this compound had a half-maximal inhibitory concentration (IC50) greater than 10000 nM.

The compound `Cc1cc(-c2ncnc3[nH]c(-c4ccc(N5CCN(CC6CCN(c7ccc(N8CCC(=O)NC8=O)c(C)c7)CC6)CC5)cc4)nc23)ccc1[C@@H](C)NC(=O)c1nc(C(C)(C)C)no1` [Example 67, (R)-3-(tert-butyl)-N-(1-(4-(8-(4-(4-((1-(4-(2,4-dioxotetrahydropyrimidin-1(2H)-yl)-3-methylphenyl)piperidin-4-yl)methyl)piperazin-1-yl)phenyl)-9H-purin-6-yl)-2-methylphenyl)ethyl)-1,2,4-oxadiazole-5-carboxamide] yielded a DC50 on BTK of 0.69 nM. Besides, the IC50 in the assay with HEK-293 cells is greater than 10000 nM.
